Experimental data as given in patent EP0361348A1, “Non-steroidal pharmaceutical composition and process for producing the same” (NIPPON HYPOX LABORATORIES INCORPORATED, priority 1988, dated 1990).

System: male SD rats
Assay: Anti-inflammatory action: carrageenin-induced sole swelling (plethysmometer)
Type: in vivo
Conditions: 1 mg/kg in terms of Piroxicam, oral; for Swelling percent: 1 hour before carrageenin, mean, n=5
Experimental: As test animals, there were used male SD rats each weighing about 200 g. As a test sample, there was used a suspension of each of the anti-inflammatory agent compositions No. 1-4 obtained in Examples 1-4 above, in a gum arabic solution (the concentration of Piroxicam in the suspension was 1%). This test sample was orally administered to each rat in an amount of 1 mg/kg in terms of Piroxicam. One hour after the administration of the test sample, an inflammatory agent (0.1 ml of a physiological saline solution containing 1% of carrageenin) was subcutaneously injected to each rat at the sole. Then, the sole volume was measured with the lapse of time using a plethysmometer, and swelling percent was calculated from the following formula. Swelling percent (%) = [(Ps - Po)/Po] x 100 where Po = sole volume before injection of carrageenin Ps = sole volume at a certain time after the injection of carrageenin For comparison, Piroxicam alone was orally administered in an amount of 1 mg/kg, in the same manner as above, and the change of swelling percent with time was examined.

CN1C(C(=O)Nc2ccccn2)=C(O)c2ccccc2S1(=O)=O [Piroxicam alone, Piroxicam]
Swelling percent (0.5 hour after carrageenin injection): 26.79% | Swelling percent (1 hour after carrageenin injection): 39.51% | Swelling percent (1.5 hours after carrageenin injection): 46.71% | Swelling percent (2 hours after carrageenin injection): 45.72% | Swelling percent (3 hours after carrageenin injection): 43.77% | Swelling percent (4 hours after carrageenin injection): 44.33% | anti-inflammatory action (result in words, from Table 1): significant anti-inflammatory action
